Results on 10 compounds are retold here after patent US11447500B2, “Thienopyridine derivatives and pharmaceutical composition comprising same” (WELLMARKER BIO CO., LTD., priority 2018, dated 2022).

One may read the IC50 as the concentration that inhibits the measured activity by half. A higher IC50 goes with weaker potency in that assay.

Assay [1] deals with RON-activated KM12C colon cancer cell line. Description: Cell killing efficacy, trypan blue exclusion assay, KM12C. Particulars: 48 hours. It counts as cell-based. As for the experimental part:
(§1) Two colon cancer cell lines, RON-activated KM12C (80015, KCLB, MEM+10% FBS) and RON-mutated (Δ160) HT-29 (30038, KCLB, RPMI+10% FBS) were prepared in 6-well plates at 5×10^4 cells/well, respectively. After 24 hours, while freshly changing the medium, the sample compounds were added to the wells at a concentration of 1 μM or 5 μM and the plates were allowed to stand for 48 hours.
(§2) As the sample compounds, the compounds synthesized in the examples of the present invention and the compounds of the comparative examples were used.
(§3) After 48 hours, the cell suspensions were collected and centrifuged (1,500 rpm, 4 min.) to obtain the cells, and live cells and dead cells were quantitated (n=2) through a trypan blue (15250-061, Gibco) exclusion assay. The statistical analysis was performed using Excel™ T-test from Microsoft.
(§4) The cell death rates of the compounds of Examples and Comparative Examples were respectively measured and the results are shown in Table 4 as relative ratios to Comparative Example 1.

Another assay concerns HT29 cells. The assay can be described thus: Cytotoxicity MTS assay, HT29. It counts as cell-based. Particulars: Homo sapiens, HT-29, 72 hours. As for the experimental part:
(§5) In order to confirm the specific cytotoxicity of the drugs, the cultured cells were treated with 0.05% trypsin/EDTA (0.5% trypsin EDTA (10×), Product No.: 15400-054, GIBCO) to detach them from the culture dish, and 3,000 cells (KM12C) or 2,000 cells (HT29, Colo 320 HSR) were dispensed into each well.
(§6) After 24 hours, sample compounds were dissolved in DMSO (Product No.: D8418-250ML, SIGMA) to make 10 mM stock solutions. As the sample compounds, the compounds synthesized in the examples of the present invention and the compounds of the comparative examples were used.
(§7) The cells were treated with the sample compound dilutions, and cultured in a 5% CO2 incubator at 37° C. for 72 hours.
(§8) Thereafter, 20 μL of MTS solution (CellTiter™ 96 Aqueous One Solution Cell Proliferation Assay, Product No.: G3581, Promega) was dispensed into each well and mixed well, and the cells were incubated for 1 to 4 hours at 37° C. in a 5% CO2 incubator.
Background: Formazan colour is commonly taken as a measure of viable cells.

The next assay has as its system KM12C cells. Description: Cytotoxicity MTS assay, KM12C. The conditions noted are these: Homo sapiens, 72 hours. The format is cell-based. How it is done: as §5, §6, §7, §8
Assay [2] concerns RON-mutated (Δ160) HT-29 colon cancer cell line. The assay can be described thus: Cell killing efficacy, trypan blue exclusion assay, HT-29. It counts as cell-based. The conditions noted are these: HT29 cell, 48 hours. How it is done: as §1, §2, §3, §4
A further assay has as its target T1, RON kinase (Homo sapiens, UniProt Q04912).
T1 construct: purchased Carna Bioscience
The assay can be described thus: RON kinase enzyme inhibitory activity, FRET (TR-FRET) technique. Particulars: 60 min reaction. It counts as biochemical. As for the experimental part:
The enzyme inhibitory activity (IC50) of the thienopyridine derivative was measured using FRET (fluorescence resonance energy transfer) technique. RON kinase (Carna Bioscience) was diluted with a kinase assay buffer (50 mM HEPES pH 7.5, 1 mM EGTA, 10 mM MgCl2, 2 mM DTT, and 0.01% Tween-20) to a concentration of 2× (0.4 nM) the final reaction concentration and the dilution was added to a 384-well plate at 5 μL/well. As sample compounds, the compounds synthesized in the examples of the present invention and the compounds of the comparative examples were used. The sample compounds were respectively dissolved in 100% DMSO to obtain 1 mM stock solutions, which were then subjected to eight 10-fold serial dilutions. The sample compounds were diluted with the kinase assay buffer to a concentration of 4× the final reaction concentration, and the dilutions were added to the 384-well plate at 2.5 μL/well. The plate was incubated at room temperature for 15 minutes. Next, 0.25 M ATP solution (Sigma Aldrich) was diluted with the kinase reaction buffer to a concentration of 4× (60 μM) the final reaction concentration, and a tyrosine peptide substrate (Perkin-Elmer) was diluted therein to a concentration of 4× (400 nM) the final reaction concentration. The dilution was added to the 384-well plate at 2.5 μL/well. Then, the 384-well plate was incubated at room temperature and the reaction was allowed to proceed for 60 minutes. After 60 minutes, EDTA (Sigma Aldrich) was diluted with TR-FRET detection buffer (Perkin-Elmer) to a concentration of 4× (40 mM) the final reaction concentration. A europium-labeled anti-phosphotyrosine antibody (Perkin-Elmer) was diluted in the above EDTA dilution to a concentration of 4× (8 nM) the final reaction concentration to prepare a stop solution of the RON kinase reaction. The stop solution was added to the 384-well plate at 10 μL/well to terminate the reaction, and the plate was incubated at room temperature for 60 minutes. Thereafter, the plate was read on Victor X5 plate reader (Perkin-Elmer). At this time, the excitation wavelength was 340 nm and the emission wavelengths were 620 nm and 665 nm. The IC50 values of the sample compounds were determined using GraphPad Prism™ 5 by expressing the emission energy at 665 nm as a function of the sample compound concentration.
For orientation: Time-resolved FRET reads energy transfer from a long-lived donor to a nearby acceptor.

T1 sequence (Q04912 25-1400): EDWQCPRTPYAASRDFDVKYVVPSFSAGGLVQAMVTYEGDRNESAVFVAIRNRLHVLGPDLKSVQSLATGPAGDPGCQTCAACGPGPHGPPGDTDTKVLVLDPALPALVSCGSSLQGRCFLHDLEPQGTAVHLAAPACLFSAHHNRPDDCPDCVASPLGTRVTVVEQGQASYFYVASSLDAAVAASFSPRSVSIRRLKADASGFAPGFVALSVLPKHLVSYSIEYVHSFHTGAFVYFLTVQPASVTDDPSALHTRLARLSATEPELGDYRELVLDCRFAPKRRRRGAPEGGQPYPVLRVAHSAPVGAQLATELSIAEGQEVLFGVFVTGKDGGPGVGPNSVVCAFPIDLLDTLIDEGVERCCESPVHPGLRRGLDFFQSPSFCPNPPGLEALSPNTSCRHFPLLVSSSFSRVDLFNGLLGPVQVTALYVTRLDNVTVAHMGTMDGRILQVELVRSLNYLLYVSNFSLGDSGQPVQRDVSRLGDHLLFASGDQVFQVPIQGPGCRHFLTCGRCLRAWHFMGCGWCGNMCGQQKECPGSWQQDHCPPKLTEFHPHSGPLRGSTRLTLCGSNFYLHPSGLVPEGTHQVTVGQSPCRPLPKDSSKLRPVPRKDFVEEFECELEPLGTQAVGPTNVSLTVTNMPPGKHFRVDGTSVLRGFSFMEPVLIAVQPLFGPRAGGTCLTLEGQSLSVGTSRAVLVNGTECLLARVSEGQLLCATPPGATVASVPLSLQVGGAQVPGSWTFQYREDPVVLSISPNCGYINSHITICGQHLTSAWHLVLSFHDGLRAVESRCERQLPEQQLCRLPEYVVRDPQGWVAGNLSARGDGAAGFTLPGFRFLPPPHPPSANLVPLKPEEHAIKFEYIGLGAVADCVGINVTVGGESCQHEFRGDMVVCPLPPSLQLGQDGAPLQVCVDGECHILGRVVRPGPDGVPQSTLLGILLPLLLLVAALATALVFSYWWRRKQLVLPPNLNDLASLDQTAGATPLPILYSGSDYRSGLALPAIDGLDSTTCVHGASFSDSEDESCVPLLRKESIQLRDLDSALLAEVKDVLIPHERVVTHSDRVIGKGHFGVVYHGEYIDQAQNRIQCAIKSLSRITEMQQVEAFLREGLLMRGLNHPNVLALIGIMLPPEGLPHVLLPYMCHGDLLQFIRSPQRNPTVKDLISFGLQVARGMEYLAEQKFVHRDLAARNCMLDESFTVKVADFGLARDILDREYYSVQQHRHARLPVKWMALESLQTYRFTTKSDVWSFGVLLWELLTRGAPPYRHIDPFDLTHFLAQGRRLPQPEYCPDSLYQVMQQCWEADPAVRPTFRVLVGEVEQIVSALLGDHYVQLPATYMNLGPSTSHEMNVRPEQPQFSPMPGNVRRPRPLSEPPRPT

As for `CCOc1ccn(-c2ccc(F)cc2)c(=O)c1C(=O)Nc1ccc(Oc2ccnc(N)c2Cl)c(F)c1` [Comp. Ex. 1, N-{4-[(2-amino-3-chloro-4-pyridinyl)oxy]-3-fluorophenyl}-4-ethoxy-1-(4-fluorophenyl)-2-oxo-1,2-dihydro-3-pyridinecarboxamide, reference compound], the “Cell death rate (Relative to Comp. Ex. 1)” value in assay [1] (1 μM), in assay [1] (5 μM), in assay [2] (1 μM) and in assay [2] (5 μM) was “x 1.00” throughout. Moreover, the half-inhibitory concentration (IC50) is 10000 to 20000 nM with HT29 cells, 511 nM with KM12C cells and 1.11 nM at RON kinase.

`Cc1ccc(C(=O)Nc2ccc(Oc3cc4cnn(C)c4cc3-c3cn[nH]c3)c(F)c2)c(=O)n1-c1ccc(F)cc1` [Comp. Ex. 3, N-(3-fluoro-4-(1-methyl-6-(1H-pyrazol-4-yl)-1H-indazol-5-yloxy)phenyl)-1-(4-fluorophenyl)-6-methyl-2-oxo-1,2-dihydropyridine-3-carboxamide, reference compound]: the “Cell death rate (Relative to Comp. Ex. 1)” value is on record as “x 0.54” in assay [1] (1 μM), “x 0.33” in assay [1] (5 μM), “x 0.83” in assay [2] (1 μM) and “x 0.52” in assay [2] (5 μM). In addition, the figures for the IC50 in the assay with HT29 cells, with KM12C cells and at RON kinase were 10800 nM, 117 nM and 3.74 nM, respectively.

In the case of `CCOc1ccn(-c2ccccc2)c(=O)c1C(=O)Nc1ccc(Oc2ccnc3cc(-c4ccc(CNCCOC)cn4)sc23)c(F)c1.Cl` [Example 1, 4-ethoxy-N-(3-fluoro-4-{[2-(5-{[(2-methoxyethyl)amino]methyl}pyridin-2-yl)thieno[3,2-b]pyridin-7-yl]oxy}phenyl)-2-oxo-1-phenyl-1,2-dihydropyridine-3-carboxamide hydrochloride], the “Cell death rate (Relative to Comp. Ex. 1)” value in assay [1] (1 μM) is “x 3.37”; in assay [1] (5 μM), “x 2.47”; in assay [2] (1 μM), “x 4.06”; in assay [2] (5 μM) it was “x 2.41”. Moreover, the figures for the concentration for half-maximal inhibition (IC50) in the assay with HT29 cells, with KM12C cells and at RON kinase were 1100 nM, 45 nM and 0.51 nM, respectively.

On to `CCOc1ccn(-c2cccc(F)c2)c(=O)c1C(=O)Nc1ccc(Oc2ccnc3cc(-c4ccc(CNCCOC)cn4)sc23)c(F)c1.Cl` [Example 14, 4-ethoxy-N-(3-fluoro-4-{[2-(5-{[(2-methoxyethyl)amino]methyl}pyridin-2-yl)thieno[3,2-b]pyridin-7-yl]oxy}phenyl)-1-(3-fluorophenyl)-2-oxo-1,2-dihydropyridine-3-carboxamide Hydrochloride], for which the “Cell death rate (Relative to Comp. Ex. 1)” value is “x 1.58” in assay [1] (1 μM), “x 1.43” in assay [1] (5 μM), “x 1.59” in assay [2] (1 μM) and “x 3.81” in assay [2] (5 μM). The figures for the IC50 in the assay on HT29 cells, with KM12C cells and against RON kinase were 668 nM, 63 nM and 0.45 nM, respectively.

Take `COCCNCc1ccc(-c2cc3nccc(Oc4ccc(NC(=O)c5ccnn(-c6ccc(F)cc6)c5=O)cc4F)c3s2)nc1.Cl` [Example 20, N-(3-fluoro-4-[{2-(5-[{(2-methoxyethyl)amino}methyl]pyridin-2-yl)thieno[3,2-b]pyridin-7-yl}oxy]phenyl)-2-(4-fluorophenyl)-3-oxo-2,3-dihydropyridazine-4-carboxamide Hydrochloride]: the “Cell death rate (Relative to Comp. Ex. 1)” value in assay [1] (1 μM) is given as “x 1.07”; in assay [1] (5 μM), “x 1.11”; in assay [2] (1 μM) it was “x 0.75”; in assay [2] (5 μM), “x 1.13”. Also, the half-inhibitory concentration (IC50) in the assay with HT29 cells was greater than 10000 nM; in the assay with KM12C cells, 10 nM; against RON kinase it was 2.47 nM.

Regarding `COCCNCc1ccc(-c2cc3nccc(Oc4ccc(NC(=O)c5ccc(C)n(-c6ccccc6)c5=O)cc4F)c3s2)nc1.Cl` [Example 21, N-(3-fluoro-4-{[2-(5-{[(2-methoxyethyl)amino]methyl}pyridin-2-yl)thieno[3,2-b]pyridin-7-yl]oxy}phenyl)-6-methyl-2-oxo-1-phenyl-1,2-dihydropyridine-3-carboxamide Hydrochloride], the “Cell death rate (Relative to Comp. Ex. 1)” value in assay [1] (1 μM) was “x 0.93”; in assay [1] (5 μM), “x 4.06”; in assay [2] (1 μM), “x 1.30”; in assay [2] (5 μM), “x 4.10”. The half-maximal inhibitory concentration (IC50) in the assay on HT29 cells worked out at 1300 nM; with KM12C cells, 1500 nM; against RON kinase, 0.56 nM.

In the case of `COCCNCc1ccc(-c2cc3nccc(Oc4ccc(NC(=O)c5ccc(C)n(-c6ccc(F)cc6)c5=O)cc4F)c3s2)nc1.Cl` [Example 22, N-(3-fluoro-4-{[2-(5-{[(2-methoxyethyl)amino]methyl}pyridin-2-yl)thieno[3,2-b]pyridin-7-yl]oxy}phenyl)-1-(4-fluorophenyl)-6-methyl-2-oxo-1,2-dihydropyridine-3-carboxamide Hydrochloride], the “Cell death rate (Relative to Comp. Ex. 1)” value in assay [1] (1 μM) is recorded as “x 1.48”; in assay [1] (5 μM), “x 1.61”; in assay [2] (1 μM) it was “x 1.07”; in assay [2] (5 μM), “x 1.71”. Moreover, the figures for the IC50 with HT29 cells, in the assay on KM12C cells and at RON kinase were 1180 nM, 1 nM and 0.44 nM, respectively.

In the case of `COCCNCc1ccc(-c2cc3nccc(Oc4ccc(NC(=O)c5c(C)ccn(-c6ccc(F)cc6)c5=O)cc4F)c3s2)nc1.Cl` [Example 25, N-(3-fluoro-4-{[2-(5-{[(2-methoxyethyl)amino]methyl}pyridin-2-yl)thieno[3,2-b]pyridin-7-yl]oxy}phenyl)-1-(4-fluorophenyl)-4-methyl-2-oxo-1,2-dihydropyridine-3-carboxamide Hydrochloride], the “Cell death rate (Relative to Comp. Ex. 1)” value is on record as “x 0.44” in assay [1] (1 μM), “x 0.69” in assay [1] (5 μM), “x 3.13” in assay [2] (1 μM) and “x 2.97” in assay [2] (5 μM). Further, the IC50 worked out at 1380 nM in the assay on HT29 cells, 25 nM with KM12C cells and 0.23 nM at RON kinase.

Regarding `COCCNCc1ccc(-c2cc3nccc(Oc4ccc(NC(=O)c5c(C)ccn(-c6ccccc6)c5=O)cc4F)c3s2)nc1.Cl` [Example 28, N-(3-fluoro-4-{[-2-(5-{[(2-methoxyethyl)amino]methyl}pyridin-2-yl)thieno[3,2-b]pyridin-7-yl]oxy}phenyl)-4-methyl-2-oxo-1-phenyl-1,2-dihydropyridine-3-carboxamide Hydrochloride], the “Cell death rate (Relative to Comp. Ex. 1)” value in assay [1] (1 μM) is listed as “x 1.22”; in assay [1] (5 μM) it was “x 1.58”; in assay [2] (1 μM) it was “x 1.46”; in assay [2] (5 μM), “x 2.65”. Also, the IC50 in the assay with HT29 cells was determined as 908 nM; with KM12C cells, 59 nM; on RON kinase it was 0.56 nM.

`CCOc1ccn(-c2ccccc2)c(=O)c1C(=O)Nc1ccc(Oc2ccnc3cc(-c4ccc(CN5CCN(C)CC5)cn4)sc23)c(F)c1.Cl` [Example 34, Hydrochloride]: the IC50 in the assay on HT29 cells is 129 nM; with KM12C cells, 6 nM; on RON kinase it was 0.23 nM.
